Test results from patent publication US11529337B2, “Method of treating pain” (VERTEX PHARMACEUTICALS INCORPORATED, priority 2018, dated 2022).

How the values were obtained:
[1] = system: subjects with pain following bunionectomy; test: Safety and tolerability evaluations in the bunionectomy study (Example 3)
From the text: Safety evaluations included adverse events, clinical laboratory assessments, clinical evaluation of vital signs, electrocardiograms, and physical examinations.

[2] = system: subjects with pain following bunionectomy; test: Randomized, double-blind, placebo-controlled study of efficacy in subjects with pain following bunionectomy (Example 3); type: in vivo, human
Method: A randomized, double-blind, placebo-controlled, 3-arm, parallel-design study to evaluate the effect of Compound 1 on acute surgical pain was conducted. Bunionectomy is a well-established, multi-dose, surgical, acute pain model. A randomized, double-blind study design was selected to avoid observer bias and reduce symptoms or outcomes arising from the subjects' knowledge of treatment. A parallel design was considered most appropriate given the acute nature of bunionectomy surgery.
Male and female patients between the ages of 18 and 65 years (inclusive) with pain that is ≥4 on an 11-point Numeric Pain Rating Scale (NPRS) and is moderate or severe on the Verbal Categorical Rating Scale (VRS) after bunionectomy.
Investigational Drug: Compound 1. The investigational drug was administered orally in 250 mg capsules, prepared as described in Example 2. The investigational drug was administered every 12 hours (q12 h). […]
On the 11-point NPRS, a score of 0 denoted no pain, and a score of 10 denoted the worst pain intensity imaginable. […] Pain intensity also was recorded on the NPRS immediately before each administration of rescue medication. Pain intensity scores that were collected within 4 hours after a dose of rescue medication were taken as missing, and the missing values were imputed as the intensity recorded immediately before the administration of rescue medication. […]

[3] = system: patients with chronic pain caused by small fiber neuropathy; test: Randomized, double-blind, placebo-controlled 6-week study in patients with chronic pain caused by small fiber neuropathy (Example 5); type: in vivo, human
Method: A randomized, double-blind, placebo-controlled, 6-week study that evaluated treatment with Compound 1 (Treatment Arm) or placebo (Placebo Arm) in patients with chronic pain caused by small fiber neuropathy was conducted.
Males and females between the ages of 18 and 80 years, inclusive, with small fiber neuropathy.
Compound 1 was administered orally in 250 mg capsules, prepared as described in Example 2.
The study included a 7-day run-in period, followed a 6-week treatment period. The subjects were randomized to a Placebo Arm (43 subjects) and a Treatment Arm (46 subjects) between the run-in period and the treatment period.
During the run-in period, subjects reported their average pain and sleep interference to establish a baseline NRS pain score and DSIS score.
During the treatment period, Compound 1 was administered to the subjects in the Treatment Arm every 24 hours (q24 h) in a dose of 1250 mg. Subjects in the Placebo Arm received placebo capsules.
11-point Numeric Rating Scale (NRS). Pain intensity was evaluated using an 11-point NRS. The 11-point scale ranged from 0 (no pain) to 10 (worst imaginable pain). From Day −7 through Week 6, subjects reported their average daily pain during the last 24 hours on the NRS via electronic diary.
Daily Sleep Interference Scale (DSIS). Subjects reported pain interference with sleep using an 11-point scale ranging from 0 (none) to 10 (severe). […]

Cc1cc(F)ccc1Oc1cc(C(F)(F)F)ccc1C(=O)Nc1ccn(COP(=O)(O)O)c(=O)c1 [Compound 1, (4-(2-(4-fluoro-2-methylphenoxy)-4-(trifluoromethyl)benzamido)-2-oxopyridin-1(2H)-yl)methyl dihydrogen phosphate]
Tolerability, in words ([1]; bunionectomy study): generally well tolerated | Gastrointestinal adverse events ([1]; share of subjects in the arm): 13% | Relief of acute pain compared to placebo (SPID24), in words ([2]; Investigational Arm versus placebo): statistically significant relief of acute pain compared to placebo | Subjects who discontinued due to lack of efficacy ([2]; number (percentage) of subjects assigned to the arm): 6 (7.5%) | Subjects with ≥30% reduction in weekly average of daily pain intensity on NRS ([3]; Week 6, total = subjects with data at Week 6): 45.0% (18/40) | Treatment difference in NRS pain intensity versus placebo at Week 1 ([3]; observed as early as Week 1): greater than 1 point
